One data set relates to HeLa derived xenograft. The note with it: 12.5 mg/kg i.v.; 3-36 h after injection; 980 nm. As to the method: (§1) In vivo upconversion luminescence imaging was performed using UCNP-P5 under 980 nm excitation (laser power: 3 W). C666-tumor-bearing and HeLa-tumor-bearing nude mice were injected with UCNP-P5 through the tail vein.
(§2) In vivo upconversion luminescence imaging: C666 and HeLa cells (10^6 cells) were inoculated subcutaneously in BALB/c female nude mice (6 weeks). When the tumors reached 0.2-0.3 cm in diameter, the C666-tumor-bearing and HeLa-tumor-bearing mice were anesthetized and injected intravenously with UCNP-P5 (150 μl, 12.5 mg/kg per mouse). The in vivo upconversion luminescence images were recorded at different time points (3 h, 6 h, 12 h, 24 h, 36 h).

A further data set has as its system C666-tumor. The note with it: 12.5 mg/kg i.v.; 3-36 h after injection; 980 nm. As to the method:
as §1, §2

For a further data set, the system named is C666 derived xenografts. The experiment in a line: In vivo suppression assay, C666 xenograft. From the text:
To determine the antitumor efficacy of the new nanoprobes in vivo, their therapeutic effects were investigated in C666 and HeLa derived xenografts in BALB/c nude mice. The mice were randomly divided into five groups: (1) control (PBS), (2) UCNP, (3) UCNP-P5, (4) UCNP-P6, (5) UCNP-P7. In order to recapitulate the clinical setting of drug delivery, intravenous injection (via a tail vein) was used to deliver these agents to the immunocompromised animal.
In vivo suppression assays: EBV-positive C666 and EBV-negative HeLa cells were suspended in 200 μL of serum-free RMPI 1640 and DMEM respectively. Female BALB/c nude mice (6-8 weeks) which obtained from HKU were then injected with the cells in the right flank. Intravenous injections were performed when the average tumor volumes reached ˜200 mm^3. 0.25 mg/tumor dose of UCNP and UCNP-Pn [n=5, 6 and 7 (SEQ ID NO: 5, 6, 7)] in […] PBS buffer were injected through tail vein of mice using a 24-gauge syringe. Mice injected with the same volume of PBS buffer served as control. The body weight and tumor volumes of the mice were measured three times per week; in which the latter is calculated by (L×W^2)/2, where L and W are the longer and shorter tumor dimensions respectively. Intravenous injection at the tail vein were performed twice a week and the mice were sacrificed after 33-day experimental period; the tumors were extracted and weighed. The treatment groups are unknown to the investigators for the experimental and data analysis processes. The animal experiments conducted were approved by the Department of Health of the HKSAR Government. All animal procedures are within the Guidelines for Care and Use of Laboratory Animals of HKBU and approved by the Animal Ethics Committee of HKBU.
Hematoxylin and eosin (H&E) staining: In general, the transplanted C666 and HeLa derived tumor tissues were collected and fixed with formalin, followed by embedding in paraffin. The histologic sections were then stained with hematoxylin and eosin. Other major organ tissues (heart, liver, spleen, lung, kidney, brain) were conducted in the same procedures.

Data set [1] has as its target EBNA1 (DNA-binding domain fragment of a.a.468-607) (Epstein-Barr virus, UniProt P03211). Nature of the data set: EBNA1 dimerization/oligomerization inhibition assay. In kind it is biochemical. The note with it: 0.3 mg/mL nanoprobe, 90 mg EBNA1, DSS crosslinking, SDS gel. As to the method:
EBNA1 dimerization/oligomerization inhibition assays were performed to reveal the ability of interrupting EBNA1 dimerization/oligomerization in the presence of the previous nanoprobe UCNP-P4 and the nanoplatforms in situ.
(conc.: 0.3 mg/mL) at 4° C. overnight. Then, 2 mM disuccinimidyl suberate (DSS) was added to allow the samples to undergo crosslinking reaction at room temperature for 30 min. The samples were run and separated on an SDS-denaturing gel and proteins were detected using Coomassie Blue staining. PBS buffer was used as control group.

For data set [2], the system named is EBV- and LMP1-negative HK1 cells. Nature of the data set: MTT cytotoxicity assay, HK1 cells. Further details: unit not given here. It counts as cell-based. Particulars: 24 h incubation. For orientation: Tetrazolium dyes change colour on reduction, which living cells bring about.
Another data set has as its system EBV-negative HeLa cells. Nature of the data set: MTT cytotoxicity assay, HeLa cells. In kind it is cell-based, human. Further details: unit not given here. Particulars: 24 h incubation.
A further data set concerns p65. Nature of the data set: Western blot of p65 (NF-κB) in LCL3 cells. It counts as cell-based. From the text:
NF-κB signaling pathway is critical for the survival of EBV-infected tumor cells. Here we investigated if our nanoprobes could affect this oncogenic pathway. EBV-positive LCL3 and C666 cells were used as models, EBV-negative HK1 cells were used as control and Western blot was used to analyze the protein expression of p65, a major transcription factor in the NF-κB family. […] GAPDH and Histone are regarded as internal standards in cytosolic and nuclear fractions, respectively. […] This is consistent with the cellular uptake results.
Western blotting: EBV-positive C666, LCL3 and EBV-negative HK1 cell pellets were treated with phosphatase and protease inhibitors at 0-4° C. for 30 min. The total protein concentrations were calculated by protein absorbance. The protein was resolved by sodium dodecyl sulfate-polyacrylamide gel electrophoresis (SDS-PAGE) and transferred to cellulose filter membranes. The membranes were blocked with 3% BSA in Tris-buffered saline in 0.1% Tween 20 (TBST) for 1 h with gentle shaking and subsequently incubated with primary antibodies (1:1000) in 3% BSA in TBST at 4° C. for overnight. After rinsing with TBST buffer three times, the blots were then incubated with corresponding secondary anti-rabbit antibody (1:6000) for 1 h. After that, the blots were rinsed again with 3% BSA in TBST for 1 h shaking at room temperature. Lastly, the density of bands was determined by image analysis system after washing with TBST buffer three times.

A further data set relates to LCL3 cells. The experiment in a line: Cellular uptake by ICP-MS, LCL3. It counts as cell-based. As to the method:
Subsequently, the quantitative distribution and uptake efficiency of nanoprobes in vitro in C666, HK1, HK1-LMP1 and LCL3 cells lines were monitored and investigated by evaluating the lanthanide content originating from the nanoprobes using inductively coupled plasma mass spectrometry (ICP-MS).
After co-incubation, the cell culture medium containing the nanoprobes was removed, and the exposed cells were further rinsed with 1 mL PBS three times. After that, the cells were trypsinized and re-dispersed in 1 mL cell medium. The cells were collected by centrifugation at 1500 rpm, and the cell pellet was digested in 100 μL concentrated HNO3 (69%) at room temperature for 3 h. Then, each cell pellet in centrifuge tube was filled up to 10 mL with 1% HNO3. The cellular uptake of all the nanoprobes was recorded via an Agilent 7500 series ICP-MS instrument. All ICP experiments were performed three times, and the values of Gd concentration (ppm) obtained were calculated and averaged.

The subject of a further data set is EBV-negative MRC-5 cells. Nature of the data set: MTT cytotoxicity assay, MRC-5 cells. It counts as cell-based, human. Further details: unit not given here. The note with it: 24 h incubation.
Setting [3] is: C666 tumor-bearing mice, 33-day experimental period.

Where no end group is shown, it is not given here. [ ]: non-standard residue; d: D form. Ahx = NCCCCCC(=O)O

Chain of EBNA1 (DNA-binding domain fragment of a.a.468-607) (P03211 468-607): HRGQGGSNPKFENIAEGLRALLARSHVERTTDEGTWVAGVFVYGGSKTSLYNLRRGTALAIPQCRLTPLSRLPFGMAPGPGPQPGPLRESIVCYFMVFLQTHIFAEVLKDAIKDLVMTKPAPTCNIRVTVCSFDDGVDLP
Procedure for EBV-negative HeLa cells: (§3) The inhibitory effects of the novel nanoprobes on both EBV-infected cancer cells and non-EBV-infected cancer cells were investigated by MTT assays to test the cell viability. […] HK1, MRC-5 and HeLa cell lines are EBV-negative and they serve as negative controls.
(§4) In vitro cytotoxic assays: The cytotoxicity of our nanoprobes was determined by MTT reduction assay. […] The cell monolayers were rinsed with PBS and 50 μL of MTT, 3-(4,5-dimethylthiazol-2-yl)-2,5-diphenyltetrazolium bromide solution (0.5 mg mL^−1) was added per well and the cells were further incubated for 3 h at 37° C. The solution was subsequently discarded, and the formazan crystals were dissolved in 100 μL of DMSO per well under shaking. The absorptions of the formazan crystal solutions at 540 nm and 690 nm were measured using a dual-wavelength Labsystem Multiskan microplate reader (Merck Eurolab).
Procedure for EBV-negative MRC-5 cells: as §3, §4

Consider “UCNP-P5: UCNP is NaGdF4:Yb^3+, Er^3+@NaGdF4 and plurality of polypeptides is Ahx-YFMVFGGRrRKGGFWLY (SEQ ID NO: 5), pH-sensitive imine linker ([Ahx]YFMVFGGR[dR]RKGGFWLY; also: conjugated to UCNP NaGdF4:Yb3+,Er3+@NaGdF4 via pH-sensitive imine linker)”, for which the “Upconversion luminescence signal from the tumor site” value is reported as “only observed at 3 h after the injection” with HeLa derived xenograft and “persisted even 24 h after the injection” with C666-tumor. Further, the “Effect on average tumor size” value in the data set on C666 derived xenografts (12.5 mg/kg, intravenous (tail vein), twice a week, 33 days) was “significantly reduce the average tumor size”. The “Tumor uptake relative to UCNP-P6 and UCNP-P7 (ICP-MS biodistribution)” value with C666 derived xenografts (C666 tumor, Gd ions) is recorded as roughly 3 fold. Also, the Body weight entry with C666 derived xenografts (setting [3]) is on record as “slightly increased”. Moreover, the Various organ weights result in the data set on C666 derived xenografts (setting [3]) is on record as “slightly increased”. For the same substance, in [1], the “Inhibition of EBNA1 dimerization/oligomerization” value is “eradicate all 90 mg EBNA1 dimers and oligomers”. The “IC50 in HK1” value in [2] worked out at 1027. For the same substance, the “IC50 in HeLa” value in the data set with EBV-negative HeLa cells is 1086. For the same substance, the “Decreased p65 expression, nuclear fraction” value in the data set with p65 is listed as 86%. Besides, the “Cellular uptake (Gd amount by ICP-MS)” value in the data set on LCL3 cells (50 μg/mL) is “largest amount of cellular uptake”. In addition, the “Gd amount relative to UCNP-P4” value in the data set on LCL3 cells (24 h incubation) was “over twice”. Besides, in the data set on EBV-negative MRC-5 cells, the “IC50 in MRC-5” value amounted to 1280.
